The subject of this assay is PMA-stimulated P90RSK(Ser380) phosphorylation in HepG2 cells. Nature of the assay: Cellular P90RSK(Ser380) Phosphorylation Assay (Biological Example 2). In kind it is cell-based. The conditions noted are these: read-out: Biological Example 2 IC50, 1.5 hours compound incubation, PMA 100 ng/mL 30 minutes, normalized to GAPDH, single assay or mean of multiple assays. The procedure:
Inhibition of PMA-stimulated P90RSK(Ser380) phosphorylation was determined by the following in vitro cellular mechanistic assay, which comprises incubating cells with a compound for 1.5 hours and quantifying fluorescent pP90RSK(Ser380) signal on fixed cells and normalizing to GAPDH signal.
HepG2 cells were obtained from ATCC and grown in DMEM supplemented with 10% fetal bovine serum. Cells were plated in 96-well plates at 35,000 cells/well and allowed to attach overnight at 37° C./5% CO2. Diluted compounds were then added at a final concentration of 0.5% DMSO. After 1.5 hours compound incubation, cells were stimulated with the addition of phorbol 12-myristate 13-acetate (“PMA”) at a final concentration of 100 ng/mL; the PMA stimulation was a 30-minute incubation at 37° C./5% CO2. After the 30-minute PMA stimulation, cells were washed with phosphate buffered saline (“PBS”) and fixed in 3.7% formaldehyde in PBS at room temperature for 15-20 minutes. This was followed by another wash in PBS and then permeabilization in 100% MeOH at room temperature for 10-15 minutes. Following the permeabilization incubation, cells were washed in PBS/0.05% Tween-20, followed by a block in Odyssey blocking buffer (LI-COR Biosciences) for at least 1 hour. […] Cells were then washed and analyzed for fluorescence at both wavelengths using the Odyssey Infrared Imaging System (LI-COR Biosciences). […]

The values below come from US9259470B2, “Serine/threonine kinase inhibitors” (Array BioPharma Inc., priority 2012, dated 2016).

In the case of `Cc1cc(Nc2nccc(-c3ccn([C@H](CO)c4ccc(Cl)c(F)c4)c(=O)c3)n2)n(C)n1` [Example 167, (S)-1-(1-(4-chloro-3-fluorophenyl)-2-hydroxyethyl)-4-(2-((1,3-dimethyl-1H-pyrazol-5-yl)amino)pyrimidin-4-yl)pyridin-2(1H)-one], the IC50 amounted to 0.1 µM.
